Literature values as cited in US20080188457A1, “Modulation of Neurogenesis with Biguanides and GSK3-beta Agents” (BrainCells, Inc., priority 2007, published 2008).
One block for each molecule: values may come before it.

What was measured:
mGluR2 = mGluR2 (Homo sapiens, UniProt Q14416)
mGluR3 = mGluR3 (Homo sapiens, UniProt Q14832)
[1] = tested on: Group I or Group III receptors; settings: at sub-mM concentrations
[2] = tested on: KA, AMPA, and NMDA iGlu receptors
human mGlu3 receptor = human mGlu3 receptor (Homo sapiens, UniProt Q14832); settings: in vitro; low nanomolar range
human mGlu2 receptor = human mGlu2 receptor (Homo sapiens, UniProt Q14416); settings: in vitro; low nanomolar range
gluconeogenesis = settings: person with type 2 diabetes

Sequence of human mGlu3 receptor (Q14832 23-879): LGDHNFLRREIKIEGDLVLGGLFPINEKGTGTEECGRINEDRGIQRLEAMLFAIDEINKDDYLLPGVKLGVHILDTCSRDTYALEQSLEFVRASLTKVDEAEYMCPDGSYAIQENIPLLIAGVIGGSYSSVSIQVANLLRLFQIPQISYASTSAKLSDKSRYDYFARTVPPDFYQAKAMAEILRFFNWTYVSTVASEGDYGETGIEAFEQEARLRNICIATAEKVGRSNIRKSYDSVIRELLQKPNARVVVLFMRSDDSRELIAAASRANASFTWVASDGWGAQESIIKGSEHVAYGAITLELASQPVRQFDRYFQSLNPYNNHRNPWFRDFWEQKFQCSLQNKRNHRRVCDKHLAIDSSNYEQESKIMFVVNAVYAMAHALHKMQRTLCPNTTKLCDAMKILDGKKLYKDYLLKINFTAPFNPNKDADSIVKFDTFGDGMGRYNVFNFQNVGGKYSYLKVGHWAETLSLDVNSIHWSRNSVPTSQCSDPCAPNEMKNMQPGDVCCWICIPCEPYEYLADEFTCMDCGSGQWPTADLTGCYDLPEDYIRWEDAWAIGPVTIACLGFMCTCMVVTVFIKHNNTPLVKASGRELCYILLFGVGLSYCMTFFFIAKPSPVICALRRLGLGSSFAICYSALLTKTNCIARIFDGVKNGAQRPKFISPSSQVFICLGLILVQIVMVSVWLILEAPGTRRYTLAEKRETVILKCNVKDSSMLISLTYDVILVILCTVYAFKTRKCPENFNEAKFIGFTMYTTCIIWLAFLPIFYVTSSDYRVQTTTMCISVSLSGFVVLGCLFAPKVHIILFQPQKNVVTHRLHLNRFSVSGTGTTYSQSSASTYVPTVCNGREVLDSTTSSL
Sequence of mGluR3 (Q14832 23-879): as above
Sequence of human mGlu2 receptor (Q14416 19-872): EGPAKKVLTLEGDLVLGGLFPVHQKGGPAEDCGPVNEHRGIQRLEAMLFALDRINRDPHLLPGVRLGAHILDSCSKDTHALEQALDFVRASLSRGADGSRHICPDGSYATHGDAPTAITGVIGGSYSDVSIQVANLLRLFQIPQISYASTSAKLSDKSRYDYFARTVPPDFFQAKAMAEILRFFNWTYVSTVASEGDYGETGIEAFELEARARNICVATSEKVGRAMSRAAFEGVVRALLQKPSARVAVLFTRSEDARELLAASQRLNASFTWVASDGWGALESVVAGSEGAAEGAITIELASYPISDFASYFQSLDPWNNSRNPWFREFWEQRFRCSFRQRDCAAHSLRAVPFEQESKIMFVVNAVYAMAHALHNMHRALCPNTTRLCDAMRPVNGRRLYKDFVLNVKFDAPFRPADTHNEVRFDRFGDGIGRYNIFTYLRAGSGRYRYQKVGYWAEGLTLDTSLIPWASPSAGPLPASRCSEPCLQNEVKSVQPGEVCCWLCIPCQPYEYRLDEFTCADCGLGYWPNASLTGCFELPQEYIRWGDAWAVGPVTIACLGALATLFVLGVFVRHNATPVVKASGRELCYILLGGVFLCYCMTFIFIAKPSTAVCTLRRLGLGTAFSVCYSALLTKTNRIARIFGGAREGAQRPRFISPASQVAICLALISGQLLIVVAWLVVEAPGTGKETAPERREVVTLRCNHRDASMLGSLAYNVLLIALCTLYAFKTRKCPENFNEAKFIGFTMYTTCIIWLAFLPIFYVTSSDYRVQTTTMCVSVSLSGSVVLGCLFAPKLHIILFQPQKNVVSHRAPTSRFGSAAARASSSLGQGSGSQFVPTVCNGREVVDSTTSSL
Sequence of mGluR2 (Q14416 19-872): as above

IC50 (mGluR2): ~30 µM
IC50 (mGluR3): ~30 µM
activity against Group I or Group III receptors [1]: no appreciable activity
SMILES: NC1(C(=O)O)CCc2cc(P(=O)(O)O)ccc21 (racemic) [APICA, (RS)-1-amino-5-phosphonoindan-1-carboxylic acid]

activity against KA, AMPA, and NMDA iGlu receptors [2]: substantially inactive
SMILES: N[C@](CC1c2ccccc2Oc2ccccc21)(C(=O)O)[C@H]1C[C@@H]1C(=O)O [LY341495, (2S)-2-amino-2-(1S,2S-2-carboxycycloprop-1-yl)-3-(xanth-9-yl) propanoic acid]

EC50 (human mGlu3 receptor): < 0.01 µM
EC50 (human mGlu2 receptor): < 0.01 µM
SMILES: N[C@@]1(C(=O)O)CO[C@H]2[C@H](C(=O)O)[C@H]21 [LY379268, (−)-2-Oxa-4-aminobicyclohexane-4,6-dicarboxylic acid]

SMILES: CN(C)C(=N)NC(=N)N [metformin, 1,1-Dimethylbiguanide]
reduction of the rate of gluconeogenesis (gluconeogenesis): over one third
